One assay deals with Bacillus cereus. Briefly: Antibacterial activity against Bacillus cereus MTCC 121 assessed as inhibition of bacterial growth by broth micro-dilution assay. In kind it is functional.
Assay [1] deals with Staphylococcus aureus. Briefly: Antibacterial activity against Staphylococcus aureus MTCC 96 assessed as inhibition of bacterial growth by broth micro-dilution assay. The class given is functional.
Assay [2] has as its system Escherichia coli. Briefly: Antibacterial activity against Escherichia coli MTCC 1652 assessed as inhibition of bacterial growth by broth micro-dilution assay. The class given is functional. On the technique in general: In broth dilution the organism is exposed to a series of concentrations in liquid medium.
A further assay has as its system Pseudomonas putida. Kind of assay: Antibacterial activity against Pseudomonas putida MTCC102 assessed as inhibition of bacterial growth by broth micro-dilution assay. In kind it is functional.
The test system of a further assay is Xanthomonas oryzae. Kind of assay: Antimicrobial activity against Xanthomonas oryzae incubated for 24 to 48 hrs by turbidimeter test. In kind it is functional, organism-based.
The subject of the next assay is Xanthomonas axonopodis. Kind of assay: Antimicrobial activity against Xanthomonas axonopodis incubated for 24 to 48 hrs by turbidimeter test. The class given is functional, organism-based.
A short description of assay [3]: Antimicrobial activity against Pseudomonas syringae pv. actinidiae incubated for 24 to 48 hrs by turbidimeter test. The class given is functional.
For assay [4], the system named is Cryptococcus neoformans. Briefly: Antimicrobial activity against Cryptococcus neoformans ATCC6603 assessed as inhibition of microbial growth incubated for 18 hrs by resazurin dye based two-fold serial dilution assay. The class given is functional. On the technique in general: The colour change of resazurin is a common sign of viable cells or microbes.
Assay [5] has as its system Cryptococcus neoformans. Briefly: Antimicrobial activity against Cryptococcus neoformans clinical isolate assessed as inhibition of microbial growth incubated for 18 hrs by resazurin dye based two-fold serial dilution assay. In kind it is functional.
The test system of assay [6] is Staphylococcus aureus. Kind of assay: Antimicrobial activity against Staphylococcus aureus assessed as inhibition of microbial growth incubated for 18 hrs by resazurin dye based two-fold serial dilution assay. In kind it is functional.
The subject of assay [7] is Staphylococcus aureus. Kind of assay: Antimicrobial activity against Staphylococcus aureus clinical isolate assessed as inhibition of microbial growth incubated for 18 hrs by resazurin dye based two-fold serial dilution assay. In kind it is functional.
In assay [8] the test system is Aspergillus niger. Kind of assay: Antimicrobial activity against Aspergillus niger RCMB02329 assessed as inhibition of microbial growth. The class given is functional.
The test system of the next assay is Geotrichum candidum. Briefly: Antimicrobial activity against Geotrichum candidum RCMB050102 assessed as inhibition of microbial growth. In kind it is functional.
The subject of assay [9] is Staphylococcus aureus. Briefly: Antimicrobial activity against Staphylococcus aureus RCMB000106 assessed as inhibition of microbial growth. In kind it is functional.
The test system of assay [10] is Bacillus subtilis. Briefly: Antimicrobial activity against Bacillus subtilis RCMB 000107 assessed as inhibition of microbial growth. In kind it is functional.
Assay [11] has as its system Escherichia coli. Briefly: Antimicrobial activity against Escherichia coli RCMB000103 assessed as inhibition of microbial growth. The class given is functional.
The test system of the next assay is Klebsiella pneumoniae. Briefly: Antimicrobial activity against Klebsiella pneumoniae RCMB000111 assessed as inhibition of microbial growth. In kind it is functional.
In assay [12] the test system is Salmonella typhimurium. Kind of assay: Antimicrobial activity against Salmonella typhimurium RCMB010072 assessed as inhibition of microbial growth. In kind it is functional, Salmonella enterica subsp. enterica serovar Typhimurium. The following applies: Salmonella enterica.
Assay [13] concerns Pseudomonas aeruginosa. Kind of assay: Antibacterial activity against Pseudomonas aeruginosa MTCC 1688 assessed as inhibition of bacterial growth incubated for 24 hrs by two-fold serial dilution method. In kind it is functional.
Assay [14] deals with Escherichia coli. Briefly: Antibacterial activity against Escherichia coli MTCC 1687 assessed as inhibition of bacterial growth incubated for 24 hrs by two-fold serial dilution method. In kind it is functional.
Assay [15] concerns Staphylococcus aureus. Briefly: Antibacterial activity against Staphylococcus aureus MTCC 96 assessed as inhibition of bacterial growth incubated for 24 hrs by two-fold serial dilution method. In kind it is functional.
For assay [16], the system named is Bacillus subtilis. Briefly: Antibacterial activity against Bacillus subtilis MTCC441 assessed as inhibition of bacterial growth incubated for 24 hrs by two-fold serial dilution method. The class given is functional.
The test system of assay [17] is Staphylococcus aureus. Kind of assay: Antibacterial activity against Staphylococcus aureus assessed as inhibition of bacterial growth by broth microdilution method. In kind it is functional.
The test system of another assay is Streptococcus pyogenes. Kind of assay: Antibacterial activity against Streptococcus pyogenes assessed as inhibition of bacterial growth by broth dilution method. In kind it is functional.
For assay [18], the system named is Salmonella typhimurium. Briefly: Antibacterial activity against Salmonella typhimurium assessed as inhibition of bacterial growth by broth dilution method. The class given is functional, Salmonella enterica subsp. enterica serovar Typhimurium. The following applies: Salmonella enterica.
Assay [19] has as its system Escherichia coli. Kind of assay: Antibacterial activity against Escherichia coli assessed as inhibition of bacterial growth by broth dilution method. The class given is functional.
Assay [20] concerns Staphylococcus aureus. Kind of assay: Antibacterial activity against Staphylococcus aureus assessed as inhibition of bacterial growth incubated for 24 hrs by macrodilution broth method. The class given is functional.
The test system of assay [21] is Bacillus subtilis. Briefly: Antibacterial activity against Bacillus subtilis assessed as inhibition of bacterial growth incubated for 24 hrs by macrodilution broth method. In kind it is functional.
The test system of assay [22] is Escherichia coli. Kind of assay: Antibacterial activity against Escherichia coli assessed as inhibition of bacterial growth incubated for 24 hrs by macrodilution broth method. The class given is functional.
For assay [23], the system named is Pseudomonas aeruginosa. Kind of assay: Antibacterial activity against Pseudomonas aeruginosa assessed as inhibition of bacterial growth incubated for 24 hrs by macrodilution broth method. In kind it is functional.
For assay [24], the system named is Escherichia coli. Kind of assay: Antimicrobial activity against Escherichia coli assessed as zone of inhibition incubated for 24 hrs by disc diffusion method. The class given is functional. (A growth-free zone around the sample is the usual read-out of agar diffusion tests.)
In assay [25] the test system is Bacillus subtilis. Briefly: Antimicrobial activity against Bacillus subtilis assessed as zone of inhibition incubated for 24 hrs by disc diffusion method. In kind it is functional.
Assay [26] has as its system Staphylococcus aureus. Kind of assay: Antimicrobial activity against Staphylococcus aureus assessed as zone of inhibition incubated for 24 hrs by disc diffusion method. The class given is functional.
The next assay relates to Shigella flexneri. Briefly: Antimicrobial activity against Shigella flexneri assessed as zone of inhibition incubated for 24 hrs by disc diffusion method. The class given is functional.
In assay [27] the test system is Candida albicans. Briefly: Antimicrobial activity against Candida albicans assessed as zone of inhibition incubated for 48 hrs by disc diffusion method. In kind it is functional.
Assay [28] concerns Aspergillus niger. Kind of assay: Antimicrobial activity against Aspergillus niger assessed as zone of inhibition incubated for 48 hrs by disc diffusion method. The class given is functional.
The test system of assay [29] is Candida albicans. Briefly: Antifungal activity against Candida albicans assessed as inhibition of fungal growth incubated for 1 to 5 days. In kind it is functional. The following applies: time 1-5 day.

Each structure is given as a SMILES string. ≈ marks a conversion by molar mass, not a printed value.

What is called MIC is the lowest concentration found to suppress growth. As usually defined, the EC50 is the concentration at which the effect is half-maximal.

Consider `O=C(Nc1ccc(F)cc1)C(=O)c1ccc2c(c1)c1ccccc1n2Cc1ccc(Cl)cc1`, for which the MIC in the assay with Bacillus cereus, with Staphylococcus aureus [1], with Escherichia coli [2] and in the assay on Pseudomonas putida was 8 µg/mL (≈ 17.5 µM) each time.
Turning to `OC(CNCc1ccc(Cl)cc1)Cn1c2ccccc2c2ccccc21` (configuration not stated), the EC50 in the assay on Xanthomonas oryzae was 1.27 µg/mL (≈ 3.48 µM); in the assay with Xanthomonas axonopodis, 1.96 µg/mL (≈ 5.37 µM); in assay [3], 3.83 µg/mL (≈ 10.5 µM).
With `COc1cccc2c1[nH]c1ccc(C(=O)N3CCCCC3C)cc12` (configuration not stated), the MIC worked out at 6.25 µg/mL in the assay on Cryptococcus neoformans [4], 12.5 µg/mL in the assay on Cryptococcus neoformans [5], 6.25 µg/mL in the assay on Staphylococcus aureus [6] and 6.25 µg/mL with Staphylococcus aureus [7].
As to `CCn1c2ccccc2c2cc(/C=N/NC3=NC(=O)/C(=N\Nc4ccccc4)S3)ccc21`, the MIC with Aspergillus niger [8], with Geotrichum candidum, in the assay with Staphylococcus aureus [9], with Bacillus subtilis [10], with Escherichia coli [11] and with Klebsiella pneumoniae was 0.49 µg/mL throughout. The MIC in the assay with Salmonella typhimurium [12] turned out to be 0.49 µg/mL.
As to `CCOC(=O)C1COC2=C(C(=O)N3c4ccccc4C4C=CC=C2C43)C1c1ccc(OC)cc1` (configuration not stated), the MIC in the assay on Pseudomonas aeruginosa [13] came to 12.5 µg/mL (≈ 27.4 µM); in the assay with Escherichia coli [14], 6.25 µg/mL (≈ 13.7 µM); with Staphylococcus aureus [15] it was 12.5 µg/mL (≈ 27.4 µM); in the assay on Bacillus subtilis [16], 12.5 µg/mL (≈ 27.4 µM).
On to `CCOC(=O)C1=C(C)NC2=C(C(=O)c3ccccc32)C1c1ccc2c(c1)c1ccccc1n2CC` (configuration not stated), for which the MIC was determined as 32 µg/mL (≈ 69.2 µM) in the assay on Staphylococcus aureus [17], 64 µg/mL (≈ 138 µM) in the assay on Streptococcus pyogenes, 32 µg/mL (≈ 69.2 µM) in the assay with Salmonella typhimurium [18] and 32 µg/mL (≈ 69.2 µM) in the assay on Escherichia coli [19].
`COC(=O)C(C)c1ccc2c3cc(Cl)ccc3n(CC(=O)Nc3c(C)cccc3C)c2c1` (configuration not stated): the MIC in the assay on Staphylococcus aureus [20], in the assay on Bacillus subtilis [21], in the assay on Escherichia coli [22] and with Pseudomonas aeruginosa [23] was 0.25 µg/mL (≈ 0.557 µM) in each case.
As for `Cn1c2ccccc2c2cc(-c3cc(-c4ccccn4)nc(N)n3)ccc21`, the “inhibition zone (IZ)” value stood at 10 mm in the assay on Escherichia coli [24]; 18 mm in the assay on Bacillus subtilis [25]; 18 mm with Staphylococcus aureus [26]; 18 mm in the assay on Shigella flexneri; 15 mm in the assay on Candida albicans [27]; 12 mm in the assay with Aspergillus niger [28].
On to `CCn1c2ccccc2c2cc(-c3cc(-c4cc(Cl)cc(O)c4O)n[nH]3)ccc21`, for which the MIC in the assay on Candida albicans [29] was determined as 25 µg/mL (≈ 61.9 µM).

The values are drawn from ChEMBL document CHEMBL5532637, “Antimicrobial activity of natural and semi-synthetic carbazole alkaloids” (Eur J Med Chem, 2023).
